Data: patent US20080318789A1, “Seed germination acceleration” (priority 2007, published 2008)

Tested on: canola (cv. Westar) seed
Experiment: Petri plate germination study of treated canola seed at 6° C.
Format: in vivo
Conditions: petri plates at 6° C., n = 3 plates of 15 seeds; for Percent germinated Day 5: day 5 after treatment; for Percent germinated Day 6: day 6 after treatment; for Percent germinated Day 7: day 7 after treatment
Method: For all seed treatments, 1 ppm active ingredient refers to 1 microgram active ingredient per gram of seed. For these studies, GA3, GA4/7, 6BA or CPPU were each dispensed into a 15 ml centrifuge tube, and 2.5 ml of de-ionized water was then added to each tube. The solution was mixed on a vortex mixer and 0.015 ml of this solution was then placed in another 15 ml. centrifuge tube along with 0.6 grams of canola seeds (cv. Westar). Seeds were mixed by rotating 360° on a Labquake Rotisserie for 30 minutes. To simulate commercial seed treatments, the amount of solutions was just sufficient to wet the seeds. After treating, the seeds were placed in weigh boats for overnight drying. Petri plate studies: Each standard petri plate (100 mm×50 mm) contained 1 blue Anchor germination circle (3¼ inches in diameter) drenched with 8 ml of de-ionized water cooled to 6° C., Each treatment consisted of 3 petri plates of 15 seeds each. After plating, the petri plates were placed in a Nalgene plastic container pre-cooled to 6° C. The plastic container containing the petri plates was placed in a growth chamber at 6° C. with a 16-hour light cycle for the duration of the study. Seeds were visually observed daily for germination as determined by emergence of root from the seed coat. Canola seeds (cv. Westar) were treated with solutions containing GA4/7, GA3, 6BA, or CPPU. The solutions were sufficient only to wet the seeds. The amount of applied GA4/7 ([…]), GA3 (0.5, 5 or 50 ppm), 6BA (5 or 50 ppm), or CPPU (5 or 50 ppm) is expressed as ppm or micrograms of compound per gram of seed.

| SMILES | Percent germinated Day 5 (seed treatment 5 ppm) [%] | Percent germinated Day 6 (seed treatment 5 ppm) [%] | Percent germinated Day 7 (seed treatment 5 ppm) [%] | Percent germinated Day 5 (seed treatment 50 ppm) [%] | Percent germinated Day 6 (seed treatment 50 ppm) [%] | Percent germinated Day 7 (seed treatment 50 ppm) [%] | Percent germinated Day 5 (seed treatment 0.5 ppm) [%] | Percent germinated Day 6 (seed treatment 0.5 ppm) [%] | Percent germinated Day 7 (seed treatment 0.5 ppm) [%] |
| --- | --- | --- | --- | --- | --- | --- | --- | --- | --- |
| c1ccc(CNc2ncnc3nc[nH]c23)cc1 [6BA] | 0 | 0 | 0 | 0 | 0.3 | 0.3 | – | – | – |
| O=C(Nc1ccccc1)Nc1ccnc(Cl)c1 [CPPU, 1-(2-chloro-4-pyridyl)-3-phenylurea] | 0 | 0 | 0.3 | 0 | 0 | 0 | – | – | – |
| C=C1C[C@]23C[C@@]1(O)CC[C@H]2[C@@]12C=C[C@H](O)[C@@](C)(C(=O)O1)[C@H]2[C@@H]3C(=O)O [GA3, (1α,2β,4aα,4bβ,10β)-2,4-a,7-trihydroxy-1-methyl-8-methylenegibb-3-ene-1,10-dicarboxylic acid 1,4a-lactone] | 0 | 0.3 | 0.7 | 0.3 | 2.7 | 5.0 | 0 | 0.3 | 0.3 |
